ChEMBL document CHEMBL1133955, “Design and synthesis of new inhibitors of HIV-1 protease dimerization with conformationally constrained templates” (Bioorg Med Chem Lett, 2001)

Assays:
[1] = molecular target: Human immunodeficiency virus type 1 protease (Human immunodeficiency virus 1) (UniProt Q72874); assay: Compound was tested for inhibition of HIV-1 protease (taken from ZhangPoorman plot)
[2] = molecular target: Human immunodeficiency virus type 1 protease (Human immunodeficiency virus 1, UniProt Q72874); assay: Inhibitory activity against HIV-1 protease
[3] = molecular target: Human immunodeficiency virus type 1 protease (Human immunodeficiency virus 1) (UniProt Q72874); assay: Compound was tested for inhibition of HIV-1 protease by a dissociative mechanism

SMILES | Kid [1] [µM] | IC50 [2] [µM] | Kid [3] [µM]
COc1ccc(NC(=O)C(=O)O)cc1C(=O)NNC(=O)OCC1c2ccccc2-c2ccccc21 | 9.1 | 30 | 
CC[C@@H](C)[C@H](NC(=O)[C@@H](NC(=O)[C@H](CC(C)C)NC(=O)[C@@H](N)Cc1c[nH]c2ccccc12)[C@H](C)O)C(=O)NCCc1cccc2c1oc1c(CCC(=O)N[C@H](C(=O)N[C@@H](Cc3ccc(O)cc3)C(=O)N[C@@H](CC(N)=O)C(=O)N[C@@H](Cc3ccccc3)C(=O)O)[C@H](C)O)cccc12 |  | 12 | 5.4
